Measured values published in the NIST ThermoML archive (doi:10.1021/acs.jced.8b00153).

Columns and labels:
[1] = refractive index (Na D-line) (dimensionless); conditions: 100 kPa, Liquid, Standard Abbe refractometry
[2] = relative permittivity at various frequencies (dimensionless); conditions: 100 kPa, Liquid, Frequency=2 MHz, Parallel plate capacitor

CCc1ccco1 [2-ethylfuran]
Conditions	refractive index, [1]	relative permittivity, [2]
278.15 K	–	2.837
280.65 K	–	2.823
283.15 K	1.44533	2.813
285.65 K	1.4439	2.798
288.15 K	1.44245	2.784
290.65 K	1.44101	2.766
293.15 K	1.43956	2.756
295.65 K	1.43817	2.739
298.15 K	1.43672	2.725
300.65 K	1.43531	2.709
303.15 K	1.43387	2.699
305.65 K	1.43244	2.682
308.15 K	1.431	2.668
310.65 K	1.42958	2.657
313.15 K	1.42814	2.643
315.65 K	1.42671	2.626
318.15 K	1.42528	2.611
320.65 K	1.42385	2.601
323.15 K	1.42241	2.583
325.65 K	1.42097	2.573
328.15 K	1.41953	2.559
330.65 K	1.4181	2.544
333.15 K	1.41669	2.527
335.65 K	1.41523	2.516
338.15 K	1.41379	2.503

CCc1cccs1 [2-ethylthiophene]
Conditions	refractive index, [1]	relative permittivity, [2]
278.15 K	–	2.968
280.65 K	–	2.959
283.15 K	1.51841	2.946
285.65 K	1.51699	2.936
288.15 K	1.51557	2.929
290.65 K	1.51417	2.916
293.15 K	1.51272	2.911
295.65 K	1.51125	2.9
298.15 K	1.50981	2.887
300.65 K	1.50841	2.878
303.15 K	1.50698	2.871
305.65 K	1.50556	2.858
308.15 K	1.50413	2.848
310.65 K	1.50269	2.838
313.15 K	1.50125	2.833
315.65 K	1.49981	2.82
318.15 K	1.49836	2.81
320.65 K	1.49695	2.799
323.15 K	1.4955	2.792
325.65 K	1.49405	2.782
328.15 K	1.49261	2.775
330.65 K	1.49116	2.766
333.15 K	1.48973	2.753
335.65 K	1.48827	2.745
338.15 K	1.48684	2.734
